Test results as given in PubChem BioAssay (NCI).
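How tested: cells in 96-well plates exposed to compound for 48 hours at five concentrations. Here, GI50 denotes the concentration required for 50% inhibition of growth. The concentration for full growth arrest is given as TGI.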

Key:
Experiment in all cases: NCI anticancer screen, dose series, 48 h
[1] = system: M14 melanoma
[2] = system: SN12C renal
[3] = system: NCI-H460 lung
[4] = system: HL-60(TB) leukemia
[5] = system: MALME-3M melanoma
[6] = system: SR leukemia
[7] = system: OVCAR-5 ovarian
[8] = system: T-47D breast
[9] = system: SK-OV-3 ovarian
[10] = system: SK-MEL-2 melanoma

Cc1cc(CNC(=O)OCc2ccccc2)c(C)c2c1Oc1ccccc1O2
TGI [1]: > 100 µM
TGI [2]: > 91.8 µM
TGI [3]: > 100 µM
GI50 [4]: > 100 µM
TGI [4]: > 100 µM
TGI [5]: > 100 µM
TGI [6]: > 100 µM
TGI [7]: > 100 µM
TGI [8]: > 100 µM
TGI [9]: 51.3 µM
TGI [10]: > 27.3 µM

O=C(NCCC(F)(F)C(F)(F)C(F)(F)C(F)(F)F)NC1OC(CO)C(O)C(O)C1O (stereo unspecified)
TGI [1]: > 100 µM
TGI [2]: > 100 µM
TGI [3]: > 100 µM
TGI [4]: > 100 µM
TGI [5]: > 100 µM
TGI [6]: > 100 µM
TGI [7]: > 100 µM
TGI [8]: > 100 µM
TGI [9]: > 100 µM
TGI [10]: > 100 µM
